PMC12508949, “Evaluation of the Pharmacokinetic Interactions of Maytenus ilicifolia Mart. ex Reiss Extracts on Drug Intestinal Permeability and Hepatic Metabolism” (ACS Omega, 2025)

Legend:
CYP3A4 [1] = system: CYP3A4; set-up: method as in Kimura et al.; details: ref Kimura et al., cited from earlier work; for inhibition of 6β-hydroxylation of testosterone: concentration of 100 μM; for IC50: read-out: IC50, 6β-hydroxylation of testosterone
CYP3A enzyme = system: CYP3A enzyme; set-up: method as in previous studies; details: ref previous studies; cited from earlier work
CYP3A4 [2] = biological target: CYP3A4 (Homo sapiens, UniProt P08684); test: CYP3A4 inhibition in human liver microsomes (midazolam 1-hydroxylation, nifedipine oxidation); details: extracts 2 mg/mL, secondary metabolites 100 μM
Chain of CYP3A4 (Homo sapiens, UniProt P08684) (P08684 whole entry): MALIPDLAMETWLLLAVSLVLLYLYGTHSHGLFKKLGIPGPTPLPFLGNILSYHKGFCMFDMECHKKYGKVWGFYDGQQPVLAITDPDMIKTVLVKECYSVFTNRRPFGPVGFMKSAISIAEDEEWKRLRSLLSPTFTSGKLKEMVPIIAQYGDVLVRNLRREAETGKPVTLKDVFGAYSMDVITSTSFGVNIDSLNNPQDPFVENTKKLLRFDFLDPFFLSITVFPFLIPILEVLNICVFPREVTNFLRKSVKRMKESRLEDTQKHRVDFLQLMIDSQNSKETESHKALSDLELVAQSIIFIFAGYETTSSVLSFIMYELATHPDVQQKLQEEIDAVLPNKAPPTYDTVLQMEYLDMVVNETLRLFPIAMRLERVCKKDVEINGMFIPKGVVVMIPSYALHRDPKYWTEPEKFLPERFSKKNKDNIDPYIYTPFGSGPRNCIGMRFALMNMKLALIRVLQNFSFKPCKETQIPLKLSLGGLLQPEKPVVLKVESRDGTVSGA

P-gp [3] = biological target: T1, P-gp (Homo sapiens, UniProt P08183); details: Caco-2; epicatechin 100 μM; reduced P app(B–A) and efflux of fexofenadine
T1 sequence (P08183 whole entry): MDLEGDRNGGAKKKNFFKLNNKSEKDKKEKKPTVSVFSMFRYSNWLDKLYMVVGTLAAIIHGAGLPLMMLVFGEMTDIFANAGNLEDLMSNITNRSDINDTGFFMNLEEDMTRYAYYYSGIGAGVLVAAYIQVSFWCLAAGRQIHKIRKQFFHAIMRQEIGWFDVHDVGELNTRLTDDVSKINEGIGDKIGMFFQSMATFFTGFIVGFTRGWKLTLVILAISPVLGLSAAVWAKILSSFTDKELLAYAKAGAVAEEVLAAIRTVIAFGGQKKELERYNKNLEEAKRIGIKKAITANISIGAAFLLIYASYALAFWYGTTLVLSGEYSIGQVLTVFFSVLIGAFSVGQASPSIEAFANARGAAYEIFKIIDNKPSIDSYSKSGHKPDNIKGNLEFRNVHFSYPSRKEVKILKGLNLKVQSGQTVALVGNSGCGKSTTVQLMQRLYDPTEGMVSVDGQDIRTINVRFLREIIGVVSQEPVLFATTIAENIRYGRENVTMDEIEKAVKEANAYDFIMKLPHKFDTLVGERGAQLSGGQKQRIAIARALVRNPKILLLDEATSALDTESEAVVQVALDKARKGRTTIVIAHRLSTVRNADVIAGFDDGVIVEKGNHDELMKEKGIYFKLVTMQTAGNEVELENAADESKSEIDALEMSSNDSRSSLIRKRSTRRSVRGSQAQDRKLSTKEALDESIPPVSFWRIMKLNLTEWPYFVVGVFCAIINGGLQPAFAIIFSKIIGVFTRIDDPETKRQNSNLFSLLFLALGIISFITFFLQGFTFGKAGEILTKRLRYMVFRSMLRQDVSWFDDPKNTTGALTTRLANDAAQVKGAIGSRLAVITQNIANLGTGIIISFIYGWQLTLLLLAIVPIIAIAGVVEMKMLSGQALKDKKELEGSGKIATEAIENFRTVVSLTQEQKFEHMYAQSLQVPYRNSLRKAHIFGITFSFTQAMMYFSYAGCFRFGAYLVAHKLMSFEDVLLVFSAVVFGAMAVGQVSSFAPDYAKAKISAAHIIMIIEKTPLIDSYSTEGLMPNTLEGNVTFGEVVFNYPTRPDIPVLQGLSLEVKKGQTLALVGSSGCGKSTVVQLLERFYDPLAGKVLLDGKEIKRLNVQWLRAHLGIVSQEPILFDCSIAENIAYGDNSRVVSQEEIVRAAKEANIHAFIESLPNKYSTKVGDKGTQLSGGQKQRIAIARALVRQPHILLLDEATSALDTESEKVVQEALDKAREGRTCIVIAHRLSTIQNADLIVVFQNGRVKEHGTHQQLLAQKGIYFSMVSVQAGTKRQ

P-gp [4] = biological target: T1, P-gp; set-up: determining P-gp activity, using a Caco-2 cell model; host or cells: Caco-2 cells; method as in Kitagawa et al.; details: KB-C2 cells; ref Kitagawa et al.; cited from earlier work

Row | SMILES | inhibition of 6β-hydroxylation of testosterone (CYP3A4 [1]) | IC50 (CYP3A4 [1]) | inhibitory activity on the CYP3A enzyme, testosterone 6β-hydroxylation (CYP3A enzyme) | further results
1 | O=c1c(O)c(-c2ccc(O)cc2)oc2cc(O)cc(O)c12 [kaempferol] | 100% | 8.8 µM | – | –
2 | O.Oc1cc(O)c2c(c1)O[C@H](c1ccc(O)c(O)c1)[C@@H](O)C2 [catechin] | – | – | higher than 50% | remaining activity (%RA) of CYP3A4, substrate reaction not specified (CYP3A4 [2]): higher than 50%
3 | O=c1c(O)c(-c2ccc(O)c(O)c2)oc2cc(O)cc(O)c12 [quercetin] | […] | […] | – | remaining activity (%RA), midazolam 1-hydroxylation (CYP3A4 [2]; negative control = 100%): markedly inhibited; remaining activity (%RA), nifedipine oxidation (CYP3A4 [2]; negative control = 100%): markedly inhibited
4 | Oc1cc(O)c2c(c1)O[C@H](c1ccc(O)c(O)c1)[C@H](O)C2 [epicatechin] | – | – | 50% | P-gp inhibitory potential (in words) (P-gp [3]): slight inhibitory potential; effect on P-gp activity (in words) (P-gp [4]): did not observe any effect
